In ChEMBL document CHEMBL3045679, “Microwave-assisted synthesis and pharmacological studies of novel 5-deazaalloxazine derivatives” (2012):

Key:
Assay type in all cases: functional
Klebsiella aerogenes = assay: Antibacterial activity against Enterobacter aerogenes NCIM 2239 at 5 ug/disk after 24 hr by disk diffusion method; settings: NCIM 2239, 24 h, read-out: DIZ
Escherichia coli = assay: Antibacterial activity against Escherichia coli NCIM 2065 at 5 ug/disk after 24 hr by disk diffusion method; settings: NCIM 2065, 24 h, read-out: DIZ
Bacillus cereus = assay: Antibacterial activity against Bacillus cereus NCIM 2155 at 5 ug/disk after 24 hr by disk diffusion method; settings: NCIM 2155, 24 h, read-out: DIZ
Streptomyces albus = assay: Antibacterial activity against Streptomyces albus NCIM 2178 at 5 ug/disk after 24 hr by disk diffusion method; settings: NCIM 2178, 24 h, read-out: DIZ
Pseudomonas aeruginosa = assay: Antibacterial activity against Pseudomonas aeruginosa NCIM 2200 at 5 ug/disk after 24 hr by disk diffusion method; settings: NCIM 2200, 24 h, read-out: DIZ
Bacillus subtilis = assay: Antibacterial activity against Bacillus subtilis NCIM 2063 at 5 ug/disk after 24 hr by disk diffusion method; settings: NCIM 2063, 24 h, read-out: DIZ

With `CC1COc2c(N3CCN(C)CC3)c(F)cc3c(=O)c(C(=O)O)cn1c23` (stereo unspecified) [OFLOXACIN] the zone of inhibition at 5 µg/disc (Klebsiella aerogenes) was 21 mm, the zone of inhibition at 5 µg/disc (Escherichia coli) was 23 mm and the zone of inhibition at 5 µg/disc (Bacillus cereus) was 19 mm. The zone of inhibition at 5 µg/disc (Streptomyces albus) was 21 mm, the zone of inhibition at 5 µg/disc (Pseudomonas aeruginosa) was 22 mm and the zone of inhibition at 5 µg/disc (Bacillus subtilis) was 22 mm.
